In patent US20230265479A1 (priority 2020, published 2023):

Columns and labels:
[1] = tested on: Firefly Luciferase reporter gene driven by the C3P3-G2 system in HEK-293 cells; assay type: cell-based, human
[2] = tested on: Firefly Luciferase reporter gene driven by the C3P3-G1 system in HEK-293 cells; assay type: cell-based, human
EIF2AK2 = EIF2AK2 (Homo sapiens, UniProt P19525); conditions: binds ATP-binding site; inhibits RNA-induced EIF2AK2 autophosphorylation (Jammi et al. 2003); cited from earlier work
Chain of EIF2AK2 (P19525 whole entry): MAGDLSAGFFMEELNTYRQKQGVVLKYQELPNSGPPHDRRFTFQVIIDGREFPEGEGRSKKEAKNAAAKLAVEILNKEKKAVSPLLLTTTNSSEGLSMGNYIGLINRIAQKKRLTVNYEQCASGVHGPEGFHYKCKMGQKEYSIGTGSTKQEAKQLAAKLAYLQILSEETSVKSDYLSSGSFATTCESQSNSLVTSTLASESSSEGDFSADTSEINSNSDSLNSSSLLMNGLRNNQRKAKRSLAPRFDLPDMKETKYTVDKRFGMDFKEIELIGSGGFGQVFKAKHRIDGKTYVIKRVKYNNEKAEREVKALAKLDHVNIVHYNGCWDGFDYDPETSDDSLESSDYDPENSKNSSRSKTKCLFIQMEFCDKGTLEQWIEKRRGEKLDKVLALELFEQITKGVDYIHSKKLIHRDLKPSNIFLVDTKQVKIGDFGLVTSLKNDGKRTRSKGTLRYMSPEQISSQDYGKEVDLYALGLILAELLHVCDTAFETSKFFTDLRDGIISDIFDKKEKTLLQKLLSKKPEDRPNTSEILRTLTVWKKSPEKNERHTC

Structure (SMILES): O=C1Nc2ccc3ncsc3c2/C1=C/c1cnc[nH]1 [CAS 608512-97-6]
- Maximum efficacy, relative ratio vs. negative control cells [1]: 1.67 fold
- Maximum efficacy, relative ratio vs. negative control cells [2]: 1.31 fold
- IC50 (EIF2AK2): 210 nM
